Laboratory results published in US7671050B2, “Triazolophthalazines” (NYCOMED GmbH, priority 2005, dated 2010).
No end group written: not given here.

Experiments:
HUVEC monolayers = test: Inhibition of thrombin-stimulated macromolecule (HRP) permeability of HUVEC monolayers; assay type: cell-based, human; conditions: 1 U/ml thrombin; for IC50: Homo sapiens, 1 h, HUVEC on Transwells, 1 μM RP73401, 10 μM Motapizone, 1 mM SNP or 100 nM ANP, HRP passage after 60 min, read-out: Inhibition of SNP- or ANP-induced permeability, -log IC50 (converted); for Effect on thrombin-induced hyperpermeability (HRP passage): 1 μM RP73401 together with 10 μM Motapizone, 60 min
Procedure: The procedure to measure macromolecule permeability of endothelial cell monolayers followed the method described by Langeler & van Hinsbergh (1988) with modifications. Human umbilical vein endothelial cells were isolated from umbilical cords according to standard procedures (Jaffe et al. 1973) and cultured in endothelial cell basal medium (EBM) supplemented with 2% FCS, 0.5 ng/ml VEGF, 10 ng/ml bFGF, 5 ng/ml EGF, 20 ng/ml Long R3 IGF-1, 0.2 μg/ml hydrocortisone, 1 μg/ml ascorbic acid, 22.5 μg/ml heparin, 50 μg/ml gentamicin, 50 ng/ml amphotericin B (EGM2 purchased from Promocell GmbH, Heidelberg, Germany). At confluency, cells were trypsinized and replated at 73000 cells per well on 3 μm polycarbonate filter Transwell inserts (Costar GmbH, Bodenheim, Germany) precoated with 10 μg cm^2−1 Fibronectin (Sigma, Taufkirchen, Germany). HUVECs were cultured in EGM2 (100 μl in the upper wells and 600 μl in the lower wells) over four days prior the experiments and medium was changed every other day. At the day of the experiment culture medium was replaced by M199 with 1% human serum albumin. Endothelial cells were preincubated with cyclic nucleotide modifiers (the selective PDE3 inhibitor motapizone, the selective PDE4 inhibitor RP73401, the cGMP generators ANP or SNP and PDE2 inhibitors) for 15 min. HUVECs were then stimulated with Thrombin (1 U ml^−1) (Sigma, Taufkichen, Germany) and horsh radish peroxidase (5 μg/ml) (Sigma, Taufkirchen, Germany) as the macromolecule marker protein was added to the upper wells. Following 1 h incubation time Transwells were removed and the activity of horsh radish peroxidase that penetrated the endothelial cell monolayer was measured in the lower wells with the 3,3′,5,5′-tetramethylbenzidine liquid substrate system from Sigma (Taufkirchen, Germany).
In parallel, compounds according to the invention can inhibit Thrombin-induced permeability of HUVEC monolayers for horsh radish peroxidase (HRP) as a macromolecule marker. […] The concentration-dependent inhibition of HRP permeability at different concentrations was assessed from the percent inhibition in the presence and absence of the PDE2 inhibitors and in the presence of 1 μM RP73401, 10 μM Motapizone and 100 nM ANP.
HUVEC cells on 3 μm polycarbonate filters (Transwells) were preincubated with 1 μM RP73401 (to block PDE4) and 10 μM Motapizone (to block PDE3), 1 mM SNP or 100 nM ANP and test sample over 15 min and then stimulated with 1 U/ml thrombin. HRP passage into the lower wells was assessed after 60 min.

Compound | IC50 (HUVEC monolayers) [nM] | melting point [°C] | Effect on the block of thrombin-induced hyperpermeability by RP73401 and Motapizone (HUVEC monolayers; 1 mM SNP or 100 nM ANP added to 1 μM RP73401 and 10 μM Motapizone) | Effect on thrombin-induced hyperpermeability (HRP passage) (HUVEC monolayers)
COc1ccc(-c2nnc3c4ccccc4c(Nc4cccc(OC)c4)nn23)cc1 [Example 7, (3-Methoxyphenyl)-[3-(4-methoxyphenyl)-[1,2,4]triazolo[3,4-a]phthalazin-6-yl]-amine] | 7.94 to 316 | – | – | –
c1ccc2c(c1)c(Nc1ccc(N3CCOCC3)cc1)nn1c(-c3ccc(N4CCOCC4)cc3)nnc21 [Example 20, (4-Morpholin-4-yl-phenyl)-[3-(4-morpholin-4-yl-phenyl)-[1,2,4]triazolo[3,4-a]phthalazin-6-yl]-amine] | – | 322 | – | –
COc1ccc(-c2nnc3c4ccccc4c(Nc4cccc(OCc5ccccc5)c4)nn23)cc1 [Example 4, (3-Benzyloxyphenyl)-[3-(4-methoxyphenyl)-[1,2,4]triazolo[3,4-a]phthalazin-6-yl]-amine] | – | 260 | – | –
COc1ccc(-c2nnc3c4ccccc4c(Nc4cccc(OC(F)F)c4)nn23)cc1 [Example 28, [3-(1,1-Difluoromethoxy)-phenyl]-[3-(4-methoxyphenyl)-[1,2,4]triazolo[3,4-a]phthalazin-6-yl]-amine] | 7.94 to 316 | 247 | – | –
CCOc1ccc(Nc2nn3c(-c4ccc(OC)cc4)nnc3c3ccccc23)cc1 [Example 12, (4-Ethoxyphenyl)-[3-(4-methoxyphenyl)-[1,2,4]triazolo[3,4-a]phthalazin-6-yl]-amine] | 7.94 to 316 | 297.5 | – | –
COc1ccc(-c2nnc3c4ccccc4c(Nc4ccc(C)cc4)nn23)cc1 [Example 11, [3-(4-Methoxyphenyl)-[1,2,4]triazolo[3,4-a]phthalazin-6-yl]-p-tolyl-amine] | 7.94 to 316 | 311 | – | –
COc1ccc(-c2nnc3c4ccccc4c(Nc4ccc(OC(F)(F)F)cc4)nn23)cc1 [Example 14, [3-(4-Methoxyphenyl)-[1,2,4]triazolo[3,4-a]phthalazin-6-yl]-(4-trifluoromethoxyphenyl)-amine] | 7.94 to 316 | 300 | – | –
COc1ccc(-c2nnc3c4ccccc4c(Nc4ccc(Cl)cc4)nn23)cc1 [Example 5, (4-Chlorophenyl)-[3-(4-methoxyphenyl)-[1,2,4]triazolo[3,4-a]phthalazin-6-yl]-amine] | – | 295 | – | –
COc1ccc(-c2nnc3c4ccccc4c(Nc4ccc(Oc5ccccc5)cc4)nn23)cc1 [Example 8, [3-(4-Methoxyphenyl)-[1,2,4]triazolo[3,4-a]phthalazin-6-yl]-(4-phenoxyphenyl)-amine] | 7.94 to 316 | 275.5 | – | –
c1ccc(-c2nnc3c4ccccc4c(Nc4ccc(N5CCOCC5)cc4)nn23)cc1 [Example 25, (4-Morpholin-4-ylphenyl)-(3-phenyl-[1,2,4]triazolo[3,4-a]phthalazin-6-yl)-amine] | 7.94 to 316 | 306 | – | –
ANP: cGMP generator (SLRRSSCFGGRMDRIGAQSGLGCNSFRY; ends and bridges not checked; cysteine pairing not given here; UniProt P01160 124-151, looked up) [reference compound] | – | – | partially reversed | –
CCOc1cccc(Nc2nn3c(-c4ccc(OC)cc4)nnc3c3ccccc23)c1 [Example 23, (3-Ethoxyphenyl)-[3-(4-methoxyphenyl)-[1,2,4]triazolo[3,4-a]phthalazin-6-yl]-amine] | 7.94 to 316 | – | – | –
COC(=O)c1cccc(-c2nnc3c4ccccc4c(Nc4ccc(N5CCOCC5)cc4)nn23)c1 [Example 19, 3-[6-(4-Morpholin-4-yl-phenylamino)-[1,2,4]triazolo[3,4-a]phthalazin-3-yl]-benzoic acid methyl ester] | 7.94 to 316 | – | – | –
CCOc1ccc(Nc2nn3c(-c4ccc(OC)cc4)nnc3c3ccccc23)cc1OCC [Example 29, (3,4-Diethoxyphenyl)-[3-(4-methoxyphenyl)-[1,2,4]triazolo[3,4-a]phthalazin-6-yl]-amine] | 7.94 to 316 | 242.5 | – | –
COc1ccc(-c2nnc3c4ccccc4c(Nc4ccc(OCc5ccccc5)cc4)nn23)cc1 [Example 10, (4-Benzyloxyphenyl)-[3-(4-methoxyphenyl)-[1,2,4]triazolo[3,4-a]phthalazin-6-yl]-amine] | 7.94 to 316 | 297 | – | –
COc1ccc(-c2nnc3c4ccccc4c(Nc4ccc(Br)cc4)nn23)cc1 [Example 31, (4-Bromo-phenyl)-[3-(4-methoxy-phenyl)-[1,2,4]triazolo[3,4-a]phthalazin-6-yl]-amine] | – | 314 to 316 | – | –
COc1ccc(-c2nnc3c4ccccc4c(Nc4ccc(OC(F)F)cc4)nn23)cc1 [Example 30, [4-(1,1-Difluoromethoxy)-phenyl]-[3-(4-methoxyphenyl)-[1,2,4]triazolo[3,4-a]phthalazin-6-yl]-amine] | 7.94 to 316 | 294 | – | –
COc1ccc(-c2nnc3c4ccccc4c(Nc4cc(OC)cc(OC)c4)nn23)cc1 [Example 27, (3,5-Dimethoxyphenyl)-[3-(4-methoxyphenyl)-[1,2,4]triazolo[3,4-a]phthalazin-6-yl]-amine] | 7.94 to 316 | 218 | – | –
COc1ccc(-c2nnc3c4ccccc4c(Nc4ccc(OC)c(OC)c4)nn23)cc1 [Example 2, (3,4-Dimethoxy-phenyl)-[3-(4-methoxy-phenyl)-[1,2,4]triazolo[3,4-a]phthalazin-6-yl]-amine] | 7.94 to 316 | – | – | –
COc1ccc(-c2nnc3c4ccccc4c(Nc4ccc(SC)cc4)nn23)cc1 [Example 16, [3-(4-Methoxyphenyl)-[1,2,4]triazolo[3,4-a]phthalazin-6-yl]-(4-methylsulfanylphenyl)-amine] | 7.94 to 316 | 326 | – | –
COc1ccc(Nc2nn3c(-c4ccc(OC)cc4)nnc3c3ccccc23)cc1 [Example 1, (4-Methoxyphenyl)-[3-(4-methoxyphenyl)-[1,2,4]triazolo[3,4-a]phthalazin-6-yl]-amine] | – | 301 to 304 | – | –
CC1CC(=O)NN=C1c1cc(-n2ccnc2)cs1 (centres unmarked) [Motapizone, reference compound] | – | – | – | completely blocked
COc1ccc(-c2nnc3c4ccccc4c(Nc4cccc(OC(F)(F)F)c4)nn23)cc1 [Example 24, [3-(4-Methoxyphenyl)-[1,2,4]triazolo[3,4-a]phthalazin-6-yl]-(3-trifluoromethoxyphenyl)-amine] | 7.94 to 316 | – | – | –
COc1ccc(-c2nnc3c4ccccc4c(Nc4ccc(CC#N)cc4)nn23)cc1 [Example 15, {4-[3-(4-Methoxyphenyl)-[1,2,4]triazolo[3,4-a]phthalazin-6-ylamino]-phenyl}-acetonitrile] | 7.94 to 316 | 295 | – | –
COc1ccc(-c2nnc3c4ccccc4c(Nc4cccc(Oc5ccccc5)c4)nn23)cc1 [Example 9, [3-(4-Methoxyphenyl)-[1,2,4]triazolo[3,4-a]phthalazin-6-yl]-(3-phenoxyphenyl)-amine] | 7.94 to 316 | – | – | –
COc1ccc(-c2nnc3c4ccccc4c(Nc4ccc(N5CCOCC5)cc4)nn23)cc1 [Example 13, [3-(4-Methoxyphenyl)-[1,2,4]triazolo[3,4-a]phthalazin-6-yl]-(4-morpholin-4-yl-phenyl)-amine] | 7.94 to 316 | 314 | – | –
COc1ccc(C(=O)Nc2c(Cl)cncc2Cl)cc1OC1CCCC1 [RP73401, reference compound] | – | – | – | completely blocked
c1ccc(Oc2ccc(-c3nnc4c5ccccc5c(Nc5ccc(N6CCOCC6)cc5)nn34)cc2)cc1 [Example 17, (4-Morpholin-4-yl-phenyl)-[3-(4-phenoxyphenyl)-[1,2,4]triazolo[3,4-a]phthalazin-6-yl]-amine] | 7.94 to 316 | 306 | – | –
COC(=O)c1ccc(-c2nnc3c4ccccc4c(Nc4ccc(N5CCOCC5)cc4)nn23)cc1 [Example 22, 4-[6-(4-Morpholin-4-yl-phenylamino)-[1,2,4]triazolo[3,4-a]phthalazin-3-yl]-benzoic acid methyl ester] | – | 303 | – | –
COc1ccc(-c2ccc(Nc3nn4c(-c5ccc(OC)cc5)nnc4c4ccccc34)cc2)cc1 [Example 6, (4′-Methoxybiphenyl-4-yl)-[3-(4-methoxyphenyl)-[1,2,4]triazolo[3,4-a]phthalazin-6-yl]-amine] | 7.94 to 316 | – | – | –
